Reference: the NIST ThermoML archive (doi:10.1007/s10765-007-0223-x)

Assay: xn = mol fraction of the nth substance listed
Conditions: 101 kPa, Liquid; for speed of sound: Single path-length method

COC(C)(C)C [2-methoxy-2-methylpropane] + CC(C)CC(C)(C)C
Conditions	mass density [kg/m3]	speed of sound [m/s]
288.15 K, x1 = 0.049	697.553	1121.8
288.15 K, x1 = 0.091	698.921	1119.5
288.15 K, x1 = 0.197	702.655	1113.9
288.15 K, x1 = 0.296	706.427	1108.7
288.15 K, x1 = 0.394	710.506	1103.7
288.15 K, x1 = 0.507	715.659	1098.5
288.15 K, x1 = 0.603	720.373	1094.9
288.15 K, x1 = 0.7	725.737	1090.9
288.15 K, x1 = 0.79	731.164	1087.8
288.15 K, x1 = 0.898	738.236	1084.6
288.15 K, x1 = 0.951	742.111	1083.4
288.15 K, x1 = 1	744.861	1082.1
290.65 K, x1 = 0.049	695.495	1111.2
290.65 K, x1 = 0.091	696.847	1108.8
290.65 K, x1 = 0.197	700.534	1103.3
290.65 K, x1 = 0.296	704.261	1097.9
290.65 K, x1 = 0.394	708.292	1092.9
290.65 K, x1 = 0.507	713.386	1087.6
290.65 K, x1 = 0.603	718.048	1083.9
290.65 K, x1 = 0.7	723.357	1079.8
290.65 K, x1 = 0.79	728.726	1076.7
290.65 K, x1 = 0.898	735.725	1073.3
290.65 K, x1 = 0.951	739.564	1072
290.65 K, x1 = 1	742.259	1070.6
293.15 K, x1 = 0.049	693.424	1100.6
293.15 K, x1 = 0.091	694.76	1098.2
293.15 K, x1 = 0.197	698.399	1092.6
293.15 K, x1 = 0.296	702.081	1087.1
293.15 K, x1 = 0.394	706.064	1082
293.15 K, x1 = 0.507	711.097	1076.7
293.15 K, x1 = 0.603	715.704	1072.9
293.15 K, x1 = 0.7	720.957	1068.7
293.15 K, x1 = 0.79	726.269	1065.5
293.15 K, x1 = 0.898	733.196	1062
293.15 K, x1 = 0.951	736.997	1060.6
293.15 K, x1 = 1	739.654	1059.1
295.65 K, x1 = 0.049	691.351	1090
295.65 K, x1 = 0.091	692.668	1087.5
295.65 K, x1 = 0.197	696.259	1081.8
295.65 K, x1 = 0.296	699.893	1076.2
295.65 K, x1 = 0.394	703.829	1071.1
295.65 K, x1 = 0.507	708.799	1065.6
295.65 K, x1 = 0.603	713.354	1061.7
295.65 K, x1 = 0.7	718.545	1057.5
295.65 K, x1 = 0.79	723.8	1054.2
295.65 K, x1 = 0.898	730.656	1050.5
295.65 K, x1 = 0.951	734.419	1049
295.65 K, x1 = 1	737.036	1047.8
298.15 K, x1 = 0.049	689.271	1079.4
298.15 K, x1 = 0.091	690.571	1076.9
298.15 K, x1 = 0.197	694.113	1071.2
298.15 K, x1 = 0.296	697.7	1065.5
298.15 K, x1 = 0.394	701.586	1060.2
298.15 K, x1 = 0.507	706.495	1054.7
298.15 K, x1 = 0.603	710.995	1050.7
298.15 K, x1 = 0.7	716.128	1046.4
298.15 K, x1 = 0.79	721.323	1042.9
298.15 K, x1 = 0.898	728.107	1039.2
298.15 K, x1 = 0.951	731.831	1037.6
298.15 K, x1 = 1	734.406	1036.6
300.65 K, x1 = 0.049	687.187	1068.9
300.65 K, x1 = 0.091	688.468	1066.3
300.65 K, x1 = 0.197	691.962	1060.5
300.65 K, x1 = 0.296	695.502	1054.7
300.65 K, x1 = 0.394	699.338	1049.4
300.65 K, x1 = 0.507	704.182	1043.8
300.65 K, x1 = 0.603	708.63	1039.7
300.65 K, x1 = 0.7	713.701	1035.2
300.65 K, x1 = 0.79	718.837	1031.7
300.65 K, x1 = 0.898	725.547	1027.9
300.65 K, x1 = 0.951	729.232	1026.2
300.65 K, x1 = 1	731.766	1025.4
303.15 K, x1 = 0.049	685.097	1058.4
303.15 K, x1 = 0.091	686.359	1055.8
303.15 K, x1 = 0.197	689.806	1050
303.15 K, x1 = 0.296	693.296	1044
303.15 K, x1 = 0.394	697.081	1038.7
303.15 K, x1 = 0.507	701.866	1032.8
303.15 K, x1 = 0.603	706.257	1028.7
303.15 K, x1 = 0.7	711.266	1024.1
303.15 K, x1 = 0.79	716.339	1020.4
303.15 K, x1 = 0.898	722.977	1016.5
303.15 K, x1 = 0.951	726.622	1014.8
303.15 K, x1 = 1	729.112	1014
305.65 K, x1 = 0.049	–	1048.1
305.65 K, x1 = 0.091	–	1045.4
305.65 K, x1 = 0.197	–	1039.5
305.65 K, x1 = 0.296	–	1033.4
305.65 K, x1 = 0.394	–	1028
305.65 K, x1 = 0.507	–	1021.9
305.65 K, x1 = 0.603	–	1017.7
305.65 K, x1 = 0.7	–	1013
305.65 K, x1 = 0.79	–	1009.2
305.65 K, x1 = 0.898	–	1005.2
305.65 K, x1 = 0.951	–	1003.4
305.65 K, x1 = 1	–	1002.7
